PMC3625477 (Journal of acquired immune deficiency syndromes (1999), 2013)
Values joined by “and” are separate entries in the source; they are usually repeats but may differ in a detail not shown here. Equal entries are not always repeated. Where two headings read alike, the source gives them in different places.

What was measured:
[1] = test system: wild type virus (HIV); details: unbound lopinavir; cited from earlier work
[2] = Total; type: in vivo, HIV-infected pregnant women; details: for concentration at 12 h / AUC(0-t) / Cmax: plasma; for concentration at 12 h: oral, C12h; for AUC(0-t) / Cmax: po; for AUC(0-t): AUC0–12h
[3] = type: in vivo, HIV-infected pregnant women; details: for concentration at 12 h / AUC(0-t) / Cmax: female, human, plasma; for concentration at 12 h: oral, C12h; for concentration at 12 h / AUC(0-t) / Cmax / C12h / Cl: protein unbound, median; for AUC(0-t) / Cmax: po; for AUC(0-t): AUC0–12h
[4] = test system: wild-type virus; details: total lopinavir; cited from earlier work
[5] = test system: blood plasma proteins albumin and alpha-1-acid-glycoprotein (AAG); details: cited from earlier work
[6] = 8 wks postpartum (PK4), LPV/RTV 400mg/100mg twice daily
[7] = 20–24 wks (PK1), LPV/RTV 400mg/100mg twice daily
[8] = 30 wks (PK2), LPV/RTV 400mg/100mg twice daily
[9] = 32 wks (PK3), LPV/RTV 500mg/125mg twice daily
[10] = female, human, total (bound + unbound), 8 wks postpartum (PK4), LPV/RTV 400mg/100mg twice daily, median
[11] = female, human, total (bound + unbound), 20–24 wks (PK1), LPV/RTV 400mg/100mg twice daily, median
[12] = female, human, total (bound + unbound), 30 wks (PK2), LPV/RTV 400mg/100mg twice daily, median
[13] = female, human, total (bound + unbound), 32 wks (PK3), LPV/RTV 500mg/125mg twice daily, median
[14] = total (bound + unbound), 8 wks postpartum (PK4), LPV/RTV 400mg/100mg twice daily, median
[15] = total (bound + unbound), 20–24 wks (PK1), LPV/RTV 400mg/100mg twice daily, median
[16] = total (bound + unbound), 30 wks (PK2), LPV/RTV 400mg/100mg twice daily, median
[17] = total (bound + unbound), 32 wks (PK3), LPV/RTV 500mg/125mg twice daily, median

## Cc1cccc(C)c1OCC(=O)N[C@@H](Cc1ccccc1)[C@@H](O)C[C@H](Cc1ccccc1)NC(=O)[C@H](C(C)C)N1CCCNC1=O [Lopinavir, lopinavir]
[1]
  protein-unbound IC50 (50% inhibitory concentration): 0.64 ng/mL and 0.64 to 0.77 ng/mL
[2]; female, human, in vivo, 12 h
  postpartum total C12h higher than at any point during pregnancy: 38–80%
[2]; second trimester, standard-dose LPV/RTV, 12 participants
  women with total lopinavir C12h below 4 µg/mL: 33%
[3]; PK2 vs PK3
  increase in protein-unbound AUC0–12h with the increased dose: < 15%
[3]; all visits
  share of all unbound concentrations below the wild type IC50 of 0.00064 µg/mL: Less than 2%
[3]; [6]
  concentration at 12 h: 160 ng/mL
  AUC(0-t): 2600 ng·h/mL
  Cmax: 280 ng/mL
  C12h: 0.16 µg/mL
  Cl: 92 L/h
[3]; [7]
  concentration at 12 h: 150 ng/mL
  AUC(0-t): 1600 ng·h/mL
  Cmax: 180 ng/mL
  C12h: 0.15 µg/mL
  Cl: 123 L/h
[3]; [8]
  concentration at 12 h: 100 ng/mL
  AUC(0-t): 1600 ng·h/mL
  Cmax: 210 ng/mL
  C12h: 0.1 µg/mL
  Cl: 155 L/h
[3]; [9]
  concentration at 12 h: 120 ng/mL
  AUC(0-t): 1800 ng·h/mL
  Cmax: 240 ng/mL
  C12h: 0.12 µg/mL
  Cl: 131 L/h
[4]
  minimum effective concentration: 1 µg/mL

## CC(C)c1nc(CN(C)C(=O)N[C@H](C(=O)N[C@@H](Cc2ccccc2)C[C@H](O)[C@H](Cc2ccccc2)NC(=O)OCc2cncs2)C(C)C)cs1 [Ritonavir, ritonavir]
[5]
  bound to the blood plasma proteins: 98–99%
[2]; [10]
  concentration at 12 h: 280 ng/mL
  Cmax: 620 ng/mL
[2]; [11]
  concentration at 12 h: 120 ng/mL
  AUC(0-t): 2500 ng·h/mL
  Cmax: 350 ng/mL
[2]; [12]
  concentration at 12 h: 120 ng/mL
  AUC(0-t): 2300 ng·h/mL
  Cmax: 300 ng/mL
[2]; [13]
  concentration at 12 h: 150 ng/mL
  AUC(0-t): 2400 ng·h/mL
  Cmax: 360 ng/mL
[2]; [14]
  AUC0–12h: 5.2 µg·h/mL
  C12h: 0.28 µg/mL
  Cl (apparent oral clearance): 12 L/h
[2]; [15]
  C12h: 0.12 µg/mL
  Cl (apparent oral clearance): 29 L/h
[2]; [16]
  C12h: 0.12 µg/mL
  Cl (apparent oral clearance): 33 L/h
[2]; [17]
  C12h: 0.15 µg/mL
  Cl (apparent oral clearance): 37 L/h
[3]; [6]
  concentration at 12 h: 30 ng/mL
  AUC(0-t): 500 ng·h/mL
  Cmax: 80 ng/mL
  Cl: 127 L/h
[3]; [7]
  concentration at 12 h: 20 ng/mL
  AUC(0-t): 400 ng·h/mL
  Cmax: 60 ng/mL
  Cl: 169 L/h
[3]; [8]
  concentration at 12 h: 20 ng/mL
  Cmax: 50 ng/mL
  Cl: 261 L/h
[3]; [9]
  concentration at 12 h: 20 ng/mL
  AUC(0-t): 300 ng·h/mL
  Cmax: 50 ng/mL
  Cl: 306 L/h
